The values that follow come from article PMC7290285 (Viruses, 2020).

One assay has as its system ecotropic pseudo-typed lentiviral particles (luciferase) in PM1-mCat1 cells. Briefly: Luciferase-based viral integration assay using PM1-mCat1 cells. Conditions: Human immunodeficiency virus 1, read-out: IC50 (in µM), viral integration assay.
For `O=C(CSc1nnc(-c2cccc(Cl)c2)n1-c1ccccc1C(F)(F)F)NCc1ccco1` [T5258076, FC(F)(F)C1=C(C=CC=C1)N1C(SCC(=O)NCC2=CC=CO2)=NN=C1C1=CC(Cl)=CC=C1], the IC50 was 4.76 µM. Turning to `CN(C1CCCCC1)S(=O)(=O)c1cccc(C#N)c1` [T5339669, CN(C1CCCCC1)S(=O)(=O)C1=CC(=CC=C1)C#N], the IC50 is 5.2 µM. As for `O=C(COc1ccccc1-c1ccccc1)NCC1CCCCC1` [T5339957, O=C(COC1=C(C=CC=C1)C1=CC=CC=C1)NCC1CCCCC1], the IC50 was found to be 6.88 µM.

On to `O=C(CSc1nc2ccccc2c(=O)n1Cc1ccco1)N1CCN(c2ccccc2)CC1` [T5344625, O=C(CSC1=NC2=C(C=CC=C2)C(=O)N1CC1=CC=CO1)N1CCN(CC1)C1=CC=CC=C1], for which the IC50 came out at 1.72 µM. For `CC(C)CCn1cnc2c1c(=O)n(CC(=O)NC1CC1)c(=O)n2Cc1ccccc1` [T5351795, CC(C)CCN1C=NC2=C1C(=O)N(CC(=O)NC1CC1)C(=O)N2CC1=CC=CC=C1], the IC50 amounted to 4.64 µM. Turning to `Clc1cccc(Nc2nc(CN3CCOCC3)nc3scc(-c4ccccc4)c23)c1` [T5363639, ClC1=CC(NC2=C3C(SC=C3C3=CC=CC=C3)=NC(CN3CCOCC3)=N2)=CC=C1], the IC50 turned out to be 2 µM.

On to `COc1ccc(S(=O)(=O)N(Cc2cccc(C(F)(F)F)c2)c2ccccc2OC)cc1` [T5407044, COC1=CC=C(C=C1)S(=O)(=O)N(CC1=CC(=CC=C1)C(F)(F)F)C1=C(OC)C=CC=C1], for which the IC50 amounted to 4.11 µM. Turning to `O=S(=O)(c1ccc(Oc2ncnc3scc(-c4ccc(F)cc4)c23)cc1)N1CCOCC1` [T5413794, FC1=CC=C(C=C1)C1=CSC2=C1C(OC1=CC=C(C=C1)S(=O)(=O)N1CCOCC1)=NC=N2], the IC50 turned out to be 6.91 µM. Same read-out and setting: as for `N#Cc1ccccc1S(=O)(=O)N1CCN(Cc2ccc(-c3ccccc3)cc2)CC1` [T5432718, O=S(=O)(N1CCN(CC2=CC=C(C=C2)C2=CC=CC=C2)CC1)C1=C(C=CC=C1)C#N], the figure is 6.33 µM; as for `COc1ccc(N(Cc2ccccc2)S(=O)(=O)c2cccc(C(=O)NCc3ccncc3)c2)cc1` [T5435331, COC1=CC=C(C=C1)N(CC1=CC=CC=C1)S(=O)(=O)C1=CC(=CC=C1)C(=O)NCC1=CC=NC=C1], 3.14 µM.

Take `CC(C)CCn1cnc2c1c(=O)n(CC(=O)NC(C)C)c(=O)n2Cc1ccccc1` [T5488769, CC(C)CCN1C=NC2=C1C(=O)N(CC(=O)NC(C)C)C(=O)N2CC1=CC=CC=C1]: the IC50 worked out at 9.06 µM.

For `Cc1ccc(F)c(NC(=O)c2ccc(OC(F)F)cc2)c1` [T5506295, CC1=CC(NC(=O)C2=CC=C(OC(F)F)C=C2)=C(F)C=C1], the IC50 was determined as 1.77 µM. Same read-out and setting: as for `Cc1ccc(S(=O)(=O)N2CCOCC2)cc1C(=O)Nc1ccccc1N1CCCC1` [T5530682, CC1=C(C=C(C=C1)S(=O)(=O)N1CCOCC1)C(=O)NC1=C(C=CC=C1)N1CCCC1], the figure is 8.26 µM; as for `c1csc(-c2csc3nc(CN4CCOCC4)nc(N4CCCC4)c23)c1` [T5587925, C(N1CCOCC1)C1=NC2=C(C(=CS2)C2=CC=CS2)C(=N1)N1CCCC1], 3.97 µM; as for `Cc1ccc(-n2nnnc2Sc2nnnn2-c2ccccc2)c(C)c1` [T5595439, CC1=CC(C)=C(C=C1)N1N=NN=C1SC1=NN=NN1C1=CC=CC=C1], 2.98 µM. On the same count and under the same terms, as for `c1ccc(CNc2nc(CN3CCOCC3)nc3scc(-c4cccs4)c23)cc1` [T5605915, C(NC1=C2C(SC=C2C2=CC=CS2)=NC(CN2CCOCC2)=N1)C1=CC=CC=C1], the figure is 4.67 µM. With `O=C(Nc1ccc2c(c1)OCCCO2)c1cccc(N2CCCC2=O)c1` [T5609721, O=C(NC1=CC2=C(OCCCO2)C=C1)C1=CC(=CC=C1)N1CCCC1=O], the IC50 came out at 4.12 µM. For `Cc1cccn2c(=O)cc(CN3CC(C(=O)N4CCCCC4)Oc4ccccc43)nc12` (stereo not drawn) [T5615894, CC1=CC=CN2C(=O)C=C(CN3CC(OC4=C3C=CC=C4)C(=O)N3CCCCC3)N=C12], the IC50 came out at 2.93 µM.

Turning to `CCNC1=NN=C(c2cc(C)n(C3CC3)c2C)CS1` [T5633521, CCNC1=NN=C(CS1)C1=C(C)N(C2CC2)C(C)=C1], the IC50 was determined as 1.05 µM. As to `O=S(=O)(c1ccc(Sc2ncnc3scc(-c4ccc(F)cc4)c23)nc1)N1CCOCC1` [T5643556, FC1=CC=C(C=C1)C1=CSC2=C1C(SC1=NC=C(C=C1)S(=O)(=O)N1CCOCC1)=NC=N2], the IC50 turned out to be 6.19 µM. Same read-out and setting: for `COC(=O)c1ccc(C(=O)Nc2ncc(C)s2)cc1` [T5650116, COC(=O)C1=CC=C(C=C1)C(=O)NC1=NC=C(C)S1] the value was 2.79 µM. As for `CCOc1ncccc1C(=O)OCc1nc(N)c2c(C)c(C)sc2n1` [T5776163, CCOC1=C(C=CC=N1)C(=O)OCC1=NC2=C(C(C)=C(C)S2)C(N)=N1], the IC50 was found to be 4.7 µM. Take `O=C(COc1ccccc1-c1ccccc1)NCc1ccccc1CN1CCOCC1` [T5781151, O=C(COC1=C(C=CC=C1)C1=CC=CC=C1)NCC1=C(CN2CCOCC2)C=CC=C1]: the IC50 amounted to 6.94 µM. On the same count and under the same terms, for `Cc1nc(SCC(=O)NC(C)c2cccs2)c(C#N)c(C)c1C` (stereo not drawn) [T5788505, CC(NC(=O)CSC1=C(C#N)C(C)=C(C)C(C)=N1)C1=CC=CS1] the value was 1.99 µM; for `Cc1ccccc1-n1nnnc1SCc1nnc(-c2cccs2)o1` [T5805638, CC1=C(C=CC=C1)N1N=NN=C1SCC1=NN=C(O1)C1=CC=CS1], 1.45 µM; for `O=C(Nc1ccc2c(c1)OCO2)c1cccc(N2CCCC2=O)c1` [T5821319, O=C(NC1=CC2=C(OCO2)C=C1)C1=CC(=CC=C1)N1CCCC1=O], 1.58 µM. With `Cc1cccc(C)c1NC(=O)CN1CCCC1c1nc2ccccc2s1` (stereo not drawn) [T5823772, CC1=CC=CC(C)=C1NC(=O)CN1CCCC1C1=NC2=C(S1)C=CC=C2], the IC50 is 8.88 µM. Still for that read-out and setting: for `CCOc1ccc(C(=O)Nc2cc(C)ccc2F)cc1` [T5869032, CCOC1=CC=C(C=C1)C(=O)NC1=C(F)C=CC(C)=C1] the value was 1.1 µM; for `CC1CCN(c2nc(CN3CCOCC3)nc3scc(-c4cccs4)c23)CC1` [T5932815, CC1CCN(CC1)C1=C2C(SC=C2C2=CC=CS2)=NC(CN2CCOCC2)=N1], 2 µM.

As to `O=c1c2ccccc2nc(CN2CCOCC2)n1Cc1nc(-c2ccc(F)cc2)cs1` [T5938605, FC1=CC=C(C=C1)C1=CSC(CN2C(CN3CCOCC3)=NC3=C(C=CC=C3)C2=O)=N1], the IC50 stood at 8.71 µM.

In the case of `CCc1ccc(-c2csc(Cn3c(CN4CCOCC4)nc4ccccc4c3=O)n2)cc1` [T5938606, CCC1=CC=C(C=C1)C1=CSC(CN2C(CN3CCOCC3)=NC3=C(C=CC=C3)C2=O)=N1], the IC50 amounted to 5.91 µM. Regarding `CC(=O)c1ccc(NC(=O)CNc2ccccc2-c2ccccc2)cc1` [T5941648, CC(=O)C1=CC=C(NC(=O)CNC2=C(C=CC=C2)C2=CC=CC=C2)C=C1], the IC50 worked out at 7.85 µM. With `O=C(CNc1ccccc1-c1ccccc1)Nc1ccccc1Cl` [T5943324, ClC1=C(NC(=O)CNC2=C(C=CC=C2)C2=CC=CC=C2)C=CC=C1], the IC50 worked out at 7.79 µM.

Regarding `O=C(COc1ccccc1-c1ccccc1)NCc1ccccc1Cn1cccn1` [T5945790, O=C(COC1=C(C=CC=C1)C1=CC=CC=C1)NCC1=C(CN2C=CC=N2)C=CC=C1], the IC50 turned out to be 6.78 µM. As for `Cc1ccccc1NC(=O)CNc1ccccc1-c1ccccc1` [T5947021, CC1=C(NC(=O)CNC2=C(C=CC=C2)C2=CC=CC=C2)C=CC=C1], the IC50 was found to be 5.61 µM. `c1ccc(-c2csc3nc(CN4CCOCC4)nc(NCCC4CCCO4)c23)cc1` (stereo not drawn) [T5948460, C(CC1CCCO1)NC1=C2C(SC=C2C2=CC=CC=C2)=NC(CN2CCOCC2)=N1]: the IC50 came to 2.33 µM. The same measure, in the same setting: as for `CS(=O)(=O)c1ccc(NC(=O)CNc2ccccc2-c2ccccc2)cc1` [T5950416, CS(=O)(=O)C1=CC=C(NC(=O)CNC2=C(C=CC=C2)C2=CC=CC=C2)C=C1], the figure is 2.08 µM. On to `CC(Nc1nc(CN2CCOCC2)nc2sc3c(c12)CCC3)c1cccc(Cl)c1` (stereo not drawn) [T5952126, CC(NC1=C2C3=C(CCC3)SC2=NC(CN2CCOCC2)=N1)C1=CC(Cl)=CC=C1], for which the IC50 was 1.53 µM. Still for that read-out and setting: for `N#Cc1ccccc1S(=O)(=O)N1CCC(CCc2ccccc2)CC1` [T5952497, O=S(=O)(N1CCC(CCC2=CC=CC=C2)CC1)C1=C(C=CC=C1)C#N] the value was 4.27 µM; for `O=C(CSc1nnc(C2CC2)o1)NC(c1ccccc1)c1cccs1` (stereo not drawn) [T5964141, O=C(CSC1=NN=C(O1)C1CC1)NC(C1=CC=CS1)C1=CC=CC=C1], 1.26 µM. The same measure, in the same setting: for `O=c1[nH]c(CSc2nnc(C3CC3)o2)nc2scc(-c3ccco3)c12` [T5983422, O=C1NC(CSC2=NN=C(O2)C2CC2)=NC2=C1C(=CS2)C1=CC=CO1] the value was 2.28 µM; for `CCC(C)c1ccc(S(=O)(=O)Nc2ccc(F)cc2C)cc1` (stereo not drawn) [T5989159, CCC(C)C1=CC=C(C=C1)S(=O)(=O)NC1=C(C)C=C(F)C=C1], 1.67 µM; for `Cc1nc(SCC(=O)NCCC(C)C)c(C#N)c(C)c1C` [T5989363, CC(C)CCNC(=O)CSC1=C(C#N)C(C)=C(C)C(C)=N1], 7.91 µM. The same measure, in the same setting: as for `CC(=O)c1ccccc1NC(=O)CNc1ccccc1-c1ccccc1` [T5989502, CC(=O)C1=C(NC(=O)CNC2=C(C=CC=C2)C2=CC=CC=C2)C=CC=C1], the figure is 1.94 µM; as for `COC(=O)c1ccccc1NS(=O)(=O)c1c(F)cc(F)cc1Br` [T6007055, COC(=O)C1=C(NS(=O)(=O)C2=C(Br)C=C(F)C=C2F)C=CC=C1], 1.35 µM. For the compound `c1csc(-c2csc3nc(CN4CCOCC4)nc(NN4CCCCC4)c23)c1` [T6026407, C(N1CCOCC1)C1=NC2=C(C(=CS2)C2=CC=CS2)C(NN2CCCCC2)=N1], the IC50 stood at 2.73 µM. The same measure, in the same setting: for `O=C(Nc1ccccc1O)c1ccccc1Br` [T6043692, OC1=C(NC(=O)C2=C(Br)C=CC=C2)C=CC=C1] the value was 4.11 µM. Same read-out and setting: for `COc1ccc(CC(=O)Nc2ccc(OC)cc2)cc1` [T6053460, COC1=CC=C(CC(=O)NC2=CC=C(OC)C=C2)C=C1] the value was 6.46 µM; for `c1csc(-c2csc3nc(CN4CCOCC4)nc(NCC4CCCO4)c23)c1` (stereo not drawn) [T6061512, C(NC1=C2C(SC=C2C2=CC=CS2)=NC(CN2CCOCC2)=N1)C1CCCO1], 6.48 µM.

The assay is the same for the next values; noted with them: Human immunodeficiency virus 1, read-out: IC50s during a 6-month period.
`Cc1nnc(C(=O)NC(C)(C)c2nc(C(=O)NCc3ccc(F)cc3)c(O)c(=O)n2C)o1` [Raltegravir, reference compound]: the IC50 fell in the range of 0.0021 to 0.0079 µM.

Still in this assay, the particulars now being: read-out: IC50 (in µM), viral integration assay; Table S3, PM1-mCat1, dose-response hit profiling.
As for `CCNC(=O)COC(=O)c1c(C)c(-c2cccc(Cl)c2)nc2ccccc12` [T0516-3343, CCNC(=O)COC(=O)C1=C2C=CC=CC2=NC(=C1C)C1=CC(Cl)=CC=C1], the IC50 is 6.07 µM.
